# Measured values from patent publication US8372831B2, “Isoxazoline linked pyrrolo[2,1-c][1,4]benzodiazepine hybrids as potential anticancer agents and the process for preparation thereof” (Council of Scientific & Industrial Research, priority 2008, dated 2013).
# Like-named read-outs stand apart in the source and are kept apart here.
# What was measured:
# [1] = tested on: EKVX; assay: NCI SRB cytotoxicity, EKVX (non-small cell lung); assay type: cell-based, human; conditions: Non-smallcell lung, 48 hrs exposure
# Procedure: (§1) Biological Activity: The in vitro biological activity studies were carried out at the National Cancer Institute, Maryland, USA.
# (§2) The C8-linked isoxazoline-PBD hybrids have been tested against sixty human tumour cell lines derived from nine cancer types (leukemia, non-small cell lung cancer, colon cancer, CNS cancer, melanoma, ovarian cancer, renal cancer, prostate cancer and breast cancer) as per NCI protocol. For each compound, dose response curves for individual cell lines have been measured at a minimum of five concentrations at 10 fold dilutions. A protocol of 48 hrs continuous drug exposure has been used, and a sulforhodamine B (SRB) protein assay was used to estimate cell viability or growth. The concentration for 50% cell growth inhibition (GI50), total cell growth inhibition (TGI, 0% growth) and 50% cell death (LC50, […]) compared with the control has been calculated (FIG. 2).
# (§3) Compound 5b and 9b have been evaluated for in vitro cytotoxicity in sixty cell lines from nine human cancer types of lung (Hop-62, NCI-H226, NCI-H522), leukemia (K-562, SR), colon (HCT-116, HCT-15, HCC-2998), CNS(SF-539), melanoma (SK-MEL-5, UACC-62, M14), ovarian (IGROV1), renal (A498), prostate (PC3) breast (BT-549, MDA-MB-435, HS578T) origin. The results are expressed as percent of cell growth determined relative to that of untreated control cells (Table 1).
# [2] = tested on: NCI-H322M; assay: NCI SRB cytotoxicity, NCI-H322M (non-small cell lung); assay type: cell-based, human; conditions: Non-smallcell lung, 48 hrs exposure
# Procedure: as §1, §2, §3
# [3] = tested on: HOP-92; assay: NCI SRB cytotoxicity, HOP-92 (non-small cell lung); assay type: cell-based, human; conditions: HOP-92, Non-smallcell lung; 48 hrs exposure
# Procedure: as §1, §2, §3
# [4] = tested on: MALME-3M; assay: NCI SRB cytotoxicity, MALME-3M (melanoma); assay type: cell-based, human; conditions: 48 hrs exposure
# Procedure: as §1, §2, §3
# [5] = tested on: CNS; assay: NCI SRB cytotoxicity, CNS cancer panel; assay type: cell-based, human; conditions: average of six to eight different cancer cell lines
# Procedure: as §1, §2, §3
# [6] = tested on: RPMI-8226; assay: NCI SRB cytotoxicity, RPMI-8226 (leukemia); assay type: cell-based, human; conditions: 48 hrs exposure
# Procedure: as §1, §2, §3
# [7] = tested on: OVCAR-3; assay: NCI SRB cytotoxicity, OVCAR-3 (ovarian); assay type: cell-based, human; conditions: 48 hrs exposure
# Procedure: as §1, §2, §3
# [8] = tested on: Breast; assay: NCI SRB cytotoxicity, breast cancer panel; assay type: cell-based, human; conditions: average of six to eight different cancer cell lines
# Procedure: as §1, §2, §3
# [9] = tested on: UACC-257; assay: NCI SRB cytotoxicity, UACC-257 (melanoma); assay type: cell-based, human; conditions: 48 hrs exposure
# Procedure: as §1, §2, §3
# [10] = tested on: T-47D; assay: NCI SRB cytotoxicity, T-47D (breast); assay type: cell-based, human; conditions: 48 hrs exposure
# Procedure: as §1, §2, §3
# [11] = tested on: BT-549; assay: NCI SRB cytotoxicity, BT-549 (breast); assay type: cell-based, human
# Procedure: as §1, §2, §3
# [12] = tested on: RXF 393; assay: NCI SRB cytotoxicity, RXF 393 (renal); assay type: cell-based, human; conditions: 48 hrs exposure
# Procedure: as §1, §2, §3
# [13] = tested on: HCT-116; assay: NCI SRB cytotoxicity, HCT-116 (colon); assay type: cell-based, human
# Procedure: as §1, §2, §3
# [14] = tested on: CAKI-1; assay: NCI SRB cytotoxicity, CAKI-1 (renal); assay type: cell-based, human; conditions: 48 hrs exposure
# Procedure: as §1, §2, §3
# [15] = tested on: HS 578T; assay: NCI SRB cytotoxicity, HS 578T (breast); assay type: cell-based, human
# Procedure: as §1, §2, §3
# [16] = tested on: MCF7; assay: NCI SRB cytotoxicity, MCF7 (breast); assay type: cell-based, human; conditions: 48 hrs exposure
# Procedure: as §1, §2, §3
# [17] = tested on: NCI-H226; assay: NCI SRB cytotoxicity, NCI-H226 (non-small cell lung); assay type: cell-based, human
# Procedure: as §1, §2, §3
# [18] = tested on: MDA-MB-435; assay: NCI SRB cytotoxicity, MDA-MB-435 (breast); assay type: cell-based, human
# Procedure: as §1, §2, §3
# [19] = tested on: HT29; assay: NCI SRB cytotoxicity, HT29 (colon); assay type: cell-based, human; conditions: 48 hrs exposure
# Procedure: as §1, §2, §3
# [20] = tested on: LOX IMVI; assay: NCI SRB cytotoxicity, LOX IMVI (melanoma); assay type: cell-based, human; conditions: 48 hrs exposure
# Procedure: as §1, §2, §3
# [21] = tested on: SK-MEL-28; assay: NCI SRB cytotoxicity, SK-MEL-28 (melanoma); assay type: cell-based, human; conditions: 48 hrs exposure
# Procedure: as §1, §2, §3
# [22] = tested on: ACHN; assay: NCI SRB cytotoxicity, ACHN (renal); assay type: cell-based, human; conditions: 48 hrs exposure
# Procedure: as §1, §2, §3
# [23] = tested on: sixty human tumour cell lines; assay: NCI in vitro cytotoxicity, sixty human tumour cell lines (SRB); assay type: cell-based; conditions: for GI50: bound over all cell lines
# Procedure: as §1, §2, §3
# [24] = tested on: Renal; assay: NCI SRB cytotoxicity, renal cancer panel; assay type: cell-based, human; conditions: average of six to eight different cancer cell lines
# Procedure: as §1, §2, §3
# [25] = tested on: SF-539; assay: NCI SRB cytotoxicity, SF-539 (CNS); assay type: cell-based, human
# Procedure: as §1, §2, §3
# [26] = tested on: COLO 205; assay: NCI SRB cytotoxicity, COLO 205 (colon); assay type: cell-based, human; conditions: 48 hrs exposure
# Procedure: as §1, §2, §3
# [27] = tested on: SNB-75; assay: NCI SRB cytotoxicity, SNB-75 (CNS); assay type: cell-based, human; conditions: 48 hrs exposure
# Procedure: as §1, §2, §3
# [28] = tested on: M14; assay: NCI SRB cytotoxicity, M14 (melanoma); assay type: cell-based, human
# Procedure: as §1, §2, §3
# [29] = tested on: SW-620; assay: NCI SRB cytotoxicity, SW-620 (colon); assay type: cell-based, human; conditions: 48 hrs exposure
# Procedure: as §1, §2, §3
# [30] = tested on: NCI-H460; assay: NCI SRB cytotoxicity, NCI-H460 (non-small cell lung); assay type: cell-based, human; conditions: NCI-H460, Non-smallcell lung; 48 hrs exposure
# Procedure: as §1, §2, §3
# [31] = tested on: HL-60(TB); assay: NCI SRB cytotoxicity, HL-60(TB) (leukemia); assay type: cell-based, human; conditions: 48 hrs exposure
# Procedure: as §1, §2, §3
# [32] = tested on: HCC-2998; assay: NCI SRB cytotoxicity, HCC-2998 (colon); assay type: cell-based, human
# Procedure: as §1, §2, §3
# [33] = tested on: Prostate; assay: NCI SRB cytotoxicity, prostate cancer panel; assay type: cell-based, human; conditions: average of six to eight different cancer cell lines
# Procedure: as §1, §2, §3
# [34] = tested on: SR; assay: NCI SRB cytotoxicity, SR (leukemia); assay type: cell-based, human
# Procedure: as §1, §2, §3
# [35] = tested on: MDA-MB-468; assay: NCI SRB cytotoxicity, MDA-MB-468 (breast); assay type: cell-based, human; conditions: 48 hrs exposure
# Procedure: as §1, §2, §3
# [36] = tested on: HOP-62; assay: NCI SRB cytotoxicity, HOP-62 (non-small cell lung); assay type: cell-based, human
# Procedure: as §1, §2, §3
structure (smiles),measurement,setting,value
"COc1cc(C2=NOC(c3cc(OC)c(OC)c(OC)c3)C2)ccc1OCCCCOc1cc2c(cc1OC)C(=O)N1CCC[C@H]1C=N2 (stereo partly drawn) [Compound 5b, (11aS)-7-(methyloxy)-8-(4-[(2-(methyloxy)-4-5-[3,4,5-tri(methyloxy)phenyl]-4,5-dihydro-3-isoxazolylphenyl)oxy]butyloxy)-2,3,5,11a-tetrahydro-1H benzo[e]pyrrolo[1,2-a][1,4]diazepin-5-one]",GI50,[1],460 nM
same,GI50,[2],340 nM
same,GI50,[3],310 nM
same,GI50,[4],210 nM
same,Log10 LC50,[5]; 50% lethality,−5.18 mol/L
same,Log10GI50,[5],−6.51 mol/L
same,GI50,[6],240 nM
same,GI50,[7],270 nM
same,Log10 LC50,[8]; 50% lethality,−4.52 mol/L
same,Log10GI50,[8],−6.74 mol/L
same,GI50,[9],270 nM
same,GI50,[10],280 nM
same,GI50,"[11]; BT-549, Breast, 48 hrs exposure",90 nM
same,GI50,[11]; breast BT-549,90 nM
same,GI50,[12],210 nM
same,GI50,"[13]; HCT-116, Colon, 48 hrs exposure",180 nM
same,GI50,[13]; colon cancer HCT-116,180 nM
same,GI50,[14],250 nM
same,GI50,"[15]; HS 578T, Breast, 48 hrs exposure",160 nM
same,GI50,[15]; breast HS 578T,160 nM
same,GI50,[16],200 nM
same,GI50,"[17]; NCI-H226, Non-smallcell lung, 48 hrs exposure",170 nM
same,GI50,[17]; non-small cell lung cancer NCI-H226,310 nM
same,GI50,"[18]; MDA-MB-435, Breast, 48 hrs exposure",170 nM
same,GI50,[18]; breast MDA-MB-435,170 nM
same,GI50,[19],360 nM
same,GI50,[20],220 nM
same,GI50,[21],200 nM
same,GI50,[22],280 nM
same,GI50,[23]; read-out: GI50 against sixty cell lines in nine cell panels,< 470 nM
same,in vitro cytotoxicity (in words),[23]; human cancer cell lines,significant cytotoxicity
same,Log10 GI50 mean graph midpoint (MG_MID),"[23]; human tumour cell lines, mean graph midpoint",−6.59
same,Log10 TGI mean graph midpoint (MG_MID),"[23]; human tumour cell lines, mean graph midpoint, total cell growth inhibition",−6.05
same,activity of 5b compared with 9b,"[23]; in vitro cytotoxicity, comparison of GI50",ten folds higher activity than 9b
same,GI50,"[23]; text b111, read-out: GI50 against sixty cell lines in nine cancer cell panels",< 470 nM
same,Log10 LC50,[24]; 50% lethality,−4.94 mol/L
same,Log10GI50,[24],−6.58 mol/L
same,GI50,[25]; CNS SF-539,220 nM
same,GI50,"[25]; SF-539, CNS, 48 hrs exposure",220 nM
same,GI50,[26],210 nM
same,GI50,[27],320 nM
same,GI50,"[28]; M14, Melanoma, 48 hrs exposure",180 nM
same,GI50,[28]; melanoma M14,180 nM
same,GI50,[29],230 nM
same,GI50,[30],210 nM
same,GI50,[31],180 nM
same,GI50,"[32]; HCC-2998, Colon, 48 hrs exposure",190 nM
same,GI50,[32]; colon cancer HCC-2998,190 nM
same,Log10 LC50,[33]; 50% lethality,−4.82 mol/L
same,Log10GI50,[33],−6.49 mol/L
same,GI50,"[34]; SR, Leukemia, 48 hrs exposure",140 nM
same,GI50,[34]; leukemia SR,140 nM
same,GI50,[35],220 nM
same,GI50,"[36]; HOP-62, Non-smallcell lung, 48 hrs exposure",270 nM
same,GI50,[36]; non-small cell lung cancer HOP-62,270 nM
